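48-hour exposure; five concentrations; linearly interpolated endpoints. GI50 marks 50% less growth. TGI denotes the concentration required for complete inhibition of growth.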
What was measured:
Experiment in all cases: DTP human tumour cell line panel, 48 h
PC-3 prostate = tested on: PC-3 prostate
SR leukemia = tested on: SR leukemia
U251 CNS = tested on: U251 CNS
RXF 393 renal = tested on: RXF 393 renal
NCI-H460 lung = tested on: NCI-H460 lung
LXFL 529 NSCLC = tested on: LXFL 529 NSCLC
DMS 114 small cell lung = tested on: DMS 114 small cell lung
KM20L2 colon = tested on: KM20L2 colon
LOX IMVI melanoma = tested on: LOX IMVI melanoma

## NCCCn1c2c(c3ccc([N+](=O)[O-])cc3c1=O)C(=O)c1cc(F)ccc1-2
PC-3 prostate
  GI50: 0.0398 µM
  TGI: 1.63 µM
SR leukemia
  GI50: < 0.01 µM
  TGI: 0.0205 µM

## CN1C(=O)CN2C(Cl)(Cl)C2(c2ccccc2)c2cc(Cl)ccc21 (stereo unspecified)
U251 CNS
  TGI: > 100 µM
RXF 393 renal
  TGI: > 100 µM
NCI-H460 lung
  TGI: > 100 µM
LXFL 529 NSCLC
  TGI: > 100 µM
DMS 114 small cell lung
  TGI: > 100 µM
KM20L2 colon
  TGI: > 100 µM
LOX IMVI melanoma
  TGI: > 100 µM

— PubChem BioAssay (NCI)
